The values that follow come from publication PMC10743086, “Immunofluorescence-Based Assay for High-Throughput Analysis of Multidrug Resistance Markers in Non-Small Cell Lung Carcinoma Patient-Derived Cells” (Diagnostics, 2023).

Common to all, as to assay type: cell-based, human
In assay [1] the test system is ABCC1 expression in non-cancer cells (CK8/18-). In words: Immunofluorescence assay of ABCC1 expression in patient-derived NSCLC cultures, non-cancer cells. The settings on record: sample TR58, chemotherapeutics, 7 days. The procedure: (§1) Tissue samples were collected during surgery, and the NSCLC diagnosis, histological grade, stage, necrosis, and lymph node invasion status were determined by histopathological analysis. […] The surgical specimens were placed in a sterile tube containing antibiotic-antimycotic solution (Sigma-Aldrich Chemie GmbH, Taufkirchen, Germany) and immediately transported to the research laboratory for further processing.
(§2) Upon arrival, the tissue was manually chopped with a surgical blade in a Petri dish under sterile conditions. The samples were cut into 3–5 mm pieces and further dissociated using the Tumor Dissociation Kit (Miltenyi Biotec, Bergisch Gladbach, Germany). The Tumor Dissociation Kit was used to dissociate the cells from the tumor tissue according to the manufacturer’s instructions. The samples were incubated in a 37 °C orbital shaker (KS 4000 ic control, IKA, Königswinter, Germany) at 300 rpm for 90 min. After incubation, the dissociated tissue was placed in DMEM/Ham’s F12 (1:3 ratio) growth medium supplemented with 5% fetal bovine serum (Corning, NY, USA), antibiotic-antimycotic solution, 4 µg/mL hydrocortisone (Sigma-Aldrich Chemie GmbH, Taufkirchen, Germany), 1 µg/mL insulin (Sigma-Aldrich Chemie GmbH, Taufkirchen, Germany), 10 ng/mL epidermal growth factor (BioLegend, San Diego, CA, USA), and 24 µg/mL adenine (Sigma-Aldrich Chemie GmbH, Taufkirchen, Germany). The DMEM and Ham’s F12 growth media were purchased from Sigma-Aldrich Chemie GmbH (Taufkirchen, Germany).
(§3) The dissociated tissue was cultured in T-25 cell culture flasks until cell attachment was observed before the medium was replaced. If no cell attachment was achieved within 7 days, the sample was discarded. Successful patient-derived cultures were maintained at 37 °C in a humidified atmosphere with 5% CO2 and grown to confluence before undergoing further experiments. […] Partial trypsinization was performed by detaching the fibroblast-like cells with 1 mL of 0.05% trypsin for 1 min at 37 °C, followed by 2 min at room temperature (RT).
(§4) Vinorelbine and pemetrexed were purchased from Selleckchem (Houston, TX, USA). Carboplatin, cisplatin, docetaxel, etoposide, gemcitabine, gefitinib, and paclitaxel were purchased from Sigma-Aldrich Chemie GmbH (Taufkirchen, Germany). The cisplatin, carboplatin, and gemcitabine were dissolved in sterile water, while the etoposide, docetaxel, vinorelbine, paclitaxel, gefitinib, and pemetrexed were dissolved in DMSO and stored at −20 °C. Before treatment, all the stock solutions were freshly diluted in sterile water.
(§5) The primary cells were seeded in black, clear bottom 384-well cell culture microplates (Thermo Fisher Scientific, Waltham, MA, USA) in 50 µL of cell growth medium at a density of 1000 cells per well. The compounds were administered 72 h after seeding. The treatment lasted 7 days.
(§6) The immunofluorescence assay for the quantification of MDR markers was optimized to distinguish cancer cells from stromal cells using a cytokeratin 8/18 (CK8/18) antibody cocktail. The cells were fixed with 4% paraformaldehyde for 20 min at RT and washed three times with PBS using the Wellwash Versa microplate washer (Thermo Fisher Scientific, Waltham, MA, USA). The cells were then blocked with 2% bovine serum albumin (BSA) in PBS for 1 h at RT. […] Co-immunostaining with antibodies against MDR markers was performed to detect the presence of ABCB1, ABCC1, and ABCG2 in both the cancer and stromal cells. […] The secondary antibodies were incubated with the cells at RT for 2 h in the dark. […] Finally, the cells were washed three times with PBS and stored at 4 °C in the dark before imaging.

The test system of assay [2] is ABCG2 expression in non-cancer cells (CK8/18-). In words: Immunofluorescence assay of ABCG2 expression in patient-derived NSCLC cultures, non-cancer cells. As to conditions: sample TR65, chemotherapeutics, 7 days. The procedure: as §1
Upon arrival, the tissue was manually chopped with a surgical blade in a Petri dish under sterile conditions. The samples were cut into 3–5 mm pieces and further dissociated using the Tumor Dissociation Kit (Miltenyi Biotec, Bergisch Gladbach, Germany). The Tumor Dissociation Kit was used to dissociate the cells from the tumor tissue according to the manufacturer’s instructions. The samples were incubated in a 37 °C orbital shaker (KS 4000 ic control, IKA, Königswinter, Germany) at 300 rpm for 90 min. […]
The immunofluorescence assay for the quantification of MDR markers was optimized to distinguish cancer cells from stromal cells using a cytokeratin 8/18 (CK8/18) antibody cocktail. […]

The test system of assay [3] is ABCG2 expression in cancer cells (CK8/18+). In words: Immunofluorescence assay of ABCG2 expression in patient-derived NSCLC cultures. As to conditions: 7 days. The protocol: as §1, §2, §3, §4, §5, §6
In assay [4] the test system is Non-cancer cells (CK8/18-) of patient-derived NSCLC cultures. In words: Cytotoxicity in patient-derived NSCLC cultures, non-cancer cells. The settings on record: Homo sapiens, 168 h, 7 days treatment. The procedure:
as §1, §2, §3, §4, §5, §6

The structures appear in SMILES notation.

A word on the IC50: it is the midpoint of a concentration-inhibition curve. With `Nc1ccn([C@@H]2O[C@H](CO)[C@@H](O)C2(F)F)c(=O)n1` [Gemcitabine, gemcitabine], the “ABCC1 expression in CK8/18− cells” value in assay [1] is listed as “elevated”. Moreover, the “ABCG2 expression in CK8/18− cells” value in assay [2] was “elevated”. Further, the ABCG2 expression result in assay [3] (culture TR58, cancer cells (CK8/18+)) was “increase (An increase in ABCB1, ABCC1, or ABCG2 expression of at least 20% at a minimum of one concentration is shown in the table.)”; in assay [3] (culture TR64, cancer cells (CK8/18+)), “increase (An increase in ABCB1, ABCC1, or ABCG2 expression of at least 20% at a minimum of one concentration is shown in the table.)”; in assay [3] (culture TR65, cancer cells (CK8/18+)) it was “increase (An increase in ABCB1, ABCC1, or ABCG2 expression of at least 20% at a minimum of one concentration is shown in the table.)”; in assay [3] (culture TR84, cancer cells (CK8/18+)) it was “increase (An increase in ABCB1, ABCC1, or ABCG2 expression of at least 20% at a minimum of one concentration is shown in the table.)”; in assay [3] (culture TR87, cancer cells (CK8/18+)), “increase (An increase in ABCB1, ABCC1, or ABCG2 expression of at least 20% at a minimum of one concentration is shown in the table.)”. Besides, the IC50 amounted to 3070 nM in assay [4] (culture TR58, non-cancer cells (CK8/18-)); 7060 nM in assay [4] (culture TR64, non-cancer cells (CK8/18-)); 351 nM in assay [4] (culture TR65, non-cancer cells (CK8/18-)); 491 nM in assay [4] (culture TR84, non-cancer cells (CK8/18-)); 1130 nM in assay [4] (culture TR87, non-cancer cells (CK8/18-)).
